Key:
Assay type in all cases: cell-based
[1] = test system: Escherichia coli (10536 strain); experiment: Assessment of antimicrobial efficacy and synergy: 15 seconds contact suspension kill test (Example 1); details: for MBC (minimum biocidal concentration): lowest concentration giving complete kill of E. coli, 15 seconds contact, component alone
[2] = test system: Escherichia coli (E. coli - ATCC #10536); experiment: High resolution MBC microtiter plate synergy assay in phosphate buffer containing 35% dipropylene glycol (Example 2); details: for MBC of component alone (MBCA, MBCB): complete kill in 15 seconds, phosphate buffer with 35% DPG, E. coli 10536; for ΣFBC: component alone
Experimental: The materials were sourced in the same way as for Example 1. Synergy tests were conducted using standard microtiter plate assays with phosphate buffer containing 35% dipropylene glycol (DPG). […] The MBC plate was inoculated one column at a time with the test microorganism. An aliquot of the inoculated well was transferred at 15 seconds to a plate containing a neutralizing agent (D/E Neutralizing Broth), mixed and held for 5 minutes before being transferred to a growth plate containing trypticase soy broth (TSB). The TSB plate was incubated at 37° C. and read for the presence/absence of growth at 24 hours. […] This microorganism is representative of natural contaminants in many consumer and industrial applications.

[3] = test system: Escherichia coli (E. coli - ATCC #10536); experiment: Automated assessment of efficacy in surfactant base, OD readout after 15 seconds exposure (Example 3)
Experimental: In these examples, the efficacy of combinations of thymol and p-menthene alcohols were tested in a surfactant cleansing formulation comprising 2.85% sodium cocoyl glycinate and 1.85% sodium lauroamphoacetate. This corresponds to a 50% in use dilution with water of a typical neat formulation containing 5.7% cocoyl glycinate and 3.7% % sodium lauroamphoacetate during hand washing. Solutions were prepared such that the concentrations of the surfactant components and test actives were 1.1 times the final desired concentration in order to allow for dilution with the bacterial inoculum in the test. The solutions were manually adjusted to pH 10.0 by dropwise addition of sodium hydroxide solution, as measured with a pH meter at ambient temperature. […]
The efficacy of the combinations of the present invention was determined against the same bacterium as in Example 1, Escherichia coli (E. coli—ATCC #10536), at a concentration of approximately 1×10^8 bacteria per mL.
Tests were conducted using standard microtiter plate assays using an automated liquid handling system. […] After 5 minutes in the DIE quench, the optical density (OD) was measured for each plate in turn at two specific wavelengths (450 nm and 590 nm). […] Delta OD values were calculated by subtracting […] at time=16 hours. […]

SMILES | MBC (minimum biocidal concentration) [1] [% w/v] | MBC of p-menthene alcohol ([1]; value used to calculate FBC, for piperitols a lower boundary) | MBC of component alone (MBCA, MBCB) [2] [weight %] | ΣFBC [2] | Cb (end-point of second component in the mixture) ([2]; with Ca 0.08 of thymol, ratio A to B 1 to 2.5) [weight %] | Cb (end-point of second component in the mixture) ([2]; with Ca 0.2 of thymol, ratio A to B 1 to 0.13) [weight %] | Cb (end-point of second component in the mixture) ([2]; with Ca 0.2 of thymol, ratio A to B 1 to 0.25) [weight %] | Cb (end-point of second component in the mixture) ([2]; with Ca 0.2 of thymol, ratio A to B 1 to 0.38) [weight %] | Cb (end-point of second component in the mixture) ([2]; with Ca 0.2 of thymol, ratio A to B 1 to 0.5) [weight %] | 15 second bactericidal efficacy in combination with thymol (in words) ([3]; in combination with thymol at concentrations lower than their MBC, same surfactant formulation, all 4 or 6 replicates) | thymol concentration required for complete bacterial kill in combination ([1]; in combination with […](w/v) of 2-(4-methylcyclohex-3-enyl)-propan-1-ol, 4-fold reduction) [%] | MBC of thymol ([1]; value used to calculate FBC) | Ca (end-point of thymol in the mixture) ([2]; with Cb 0.025 of 2-(4-methylcyclohex-3-enyl)-propan-1-ol, ratio A to B 1 to 0.13) [weight %] | Ca (end-point of thymol in the mixture) ([2]; with Cb 0.05, ratio A to B 1 to 0.25) [weight %] | Ca (end-point of thymol in the mixture) ([2]; with Cb 0.075, ratio A to B 1 to 0.38) [weight %] | Ca (end-point of thymol in the mixture) ([2]; with Cb 0.1, ratio A to B 1 to 0.5) [weight %] | Ca (end-point of thymol in the mixture) ([2]; with Cb 0.2, ratio A to B 1 to 2.5) [weight %] | MBC (minimum biocidal concentration) ([3]; in 2.85% sodium cocoyl glycinate + 1.85% sodium lauroamphoacetate solution at pH 10) [% w/v]
CC1=CCC(C(C)CO)CC1 (stereo not drawn) [2-(4-methylcyclohex-3-enyl)-propan-1-ol, 2-(4-methylcyclohex-3-enyl)propan-1-ol] | 0.15 | 0.15 % (w/v) | 0.3 | 1.00 | 0.2 | 0.025 | 0.05 | 0.075 | 0.1 | complete kill |  |  |  |  |  |  |  | 
CC1=CCC(C(C)(C)O)CC1 (stereo not drawn) [alpha-terpineol, reference compound] | 0.4 |  |  |  |  |  |  |  |  |  |  |  |  |  |  |  |  | 
Cc1ccc(C(C)C)c(O)c1 [thymol, 2-isopropyl-5-methylphenol, reference compound] |  |  | 0.3 | 1.00 |  |  |  |  |  |  | 0.0125 | 0.025 % (w/v) | 0.2 | 0.2 | 0.2 | 0.2 | 0.08 | >0.2

— patent US20150050220A1, “ANTIMICROBIAL COMPOSITION” (Rohm and Haas Company, priority 2011, published 2015)
